# Reference: patent US12522598B2, “3-(2-(heteroaryl)-pyridin-4-yl)-5-(trifluoromethyl)-1,2,4-oxadiazole derivatives as HDAC6 inhibitors” (ORYZON GENOMICS, S.A., priority 2019, dated 2026)
# Structures can show the parent of a compound that is named as a salt.
# Target: T1, HDAC6 (Homo sapiens, UniProt Q9UBN7)
# T1 construct: purchased BPS Bioscience 50006
# T1 sequence (Q9UBN7 1-1215): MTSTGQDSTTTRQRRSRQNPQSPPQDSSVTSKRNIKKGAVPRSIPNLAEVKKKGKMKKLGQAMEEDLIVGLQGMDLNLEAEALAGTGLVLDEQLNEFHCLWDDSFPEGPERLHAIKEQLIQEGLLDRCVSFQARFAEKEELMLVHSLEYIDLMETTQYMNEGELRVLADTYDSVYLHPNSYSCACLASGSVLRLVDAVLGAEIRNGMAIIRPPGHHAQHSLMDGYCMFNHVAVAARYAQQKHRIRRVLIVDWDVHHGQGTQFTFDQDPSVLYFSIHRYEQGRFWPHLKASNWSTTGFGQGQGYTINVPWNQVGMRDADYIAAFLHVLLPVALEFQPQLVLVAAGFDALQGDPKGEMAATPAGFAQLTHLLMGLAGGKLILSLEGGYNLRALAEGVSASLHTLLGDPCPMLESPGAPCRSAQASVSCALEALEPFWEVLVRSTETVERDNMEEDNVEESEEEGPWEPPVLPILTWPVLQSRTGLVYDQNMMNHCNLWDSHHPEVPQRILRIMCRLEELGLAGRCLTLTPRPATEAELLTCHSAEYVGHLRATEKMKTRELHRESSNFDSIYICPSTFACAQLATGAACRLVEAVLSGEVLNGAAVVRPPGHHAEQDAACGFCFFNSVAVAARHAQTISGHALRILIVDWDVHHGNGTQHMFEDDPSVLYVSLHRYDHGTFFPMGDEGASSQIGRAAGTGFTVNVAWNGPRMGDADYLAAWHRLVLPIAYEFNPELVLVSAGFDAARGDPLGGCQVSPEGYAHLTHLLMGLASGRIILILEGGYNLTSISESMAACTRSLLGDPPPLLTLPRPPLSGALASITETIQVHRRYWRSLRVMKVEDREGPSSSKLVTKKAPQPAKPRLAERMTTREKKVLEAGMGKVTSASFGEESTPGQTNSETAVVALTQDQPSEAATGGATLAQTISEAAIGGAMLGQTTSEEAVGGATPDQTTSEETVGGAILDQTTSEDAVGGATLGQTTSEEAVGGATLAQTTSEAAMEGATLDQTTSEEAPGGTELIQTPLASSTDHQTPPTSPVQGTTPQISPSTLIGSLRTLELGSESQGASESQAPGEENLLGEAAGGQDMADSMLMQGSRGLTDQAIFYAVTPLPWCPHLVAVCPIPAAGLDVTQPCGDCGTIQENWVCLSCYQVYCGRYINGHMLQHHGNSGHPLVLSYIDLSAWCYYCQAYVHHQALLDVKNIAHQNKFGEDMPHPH
# Assay: HDAC6 enzyme inhibition assay (fluorimetric)
# Format: biochemical
# Conditions: 3 hours preincubation with enzyme, fraction of positive control; for inhibition at 0.1 µM: read-out: HDAC6 % inh @ 0.1 μM; for inhibition at 0.3 µM: read-out: HDAC6 % inh @ 0.3 μM; for inhibition at 1 µM: read-out: HDAC6 % inh @ 1 μM
# Method: A fluorimetric assay was used to determine the biochemical activity of the inhibitors on HDAC6 in 96-Well Half Area Black Microplates (Corning #3686)+TopSeal-A Black Sealing Film (Perkin Elmer #6050173). Test compounds were dissolved in DMSO. Half-log serial dilutions of test compounds were prepared in DMSO and then diluted 1:10 in assay buffer (BPS Bioscience #50031).
# 2.5 μL of enzyme (BPS Bioscience #50006) was incubated with 2.5 μL of test compounds for 3 hours in assay buffer with 0.1 mg/mL Bovine Serum Albumin (Sigma-Aldrich #A7030) at 21° C. in 22.5 μL total volume. The enzymatic reaction was started with the addition of 2.5 μL of a fluorogenic acetylated peptide substrate (BPS Bioscience #50037). The final concentration of enzyme and substrate in the reaction were 8.8 nM and 9 μM, respectively. After 45 minutes of incubation at 37° C., the addition of 25 μL of a development solution (BPS
# Bioscience #50030) releases a fluorophore whose amount is proportional to the amount of the deacetylated product. Fluorescence intensity was measured after 15 minutes incubation at 21° C. with a Tecan Infinite F200 microplate reader (excitation 360 nm-emission 460 nm).
# The negative control (background) was represented by the reaction mix in the absence of the enzyme (with 0.1% DMSO), while the positive control of deacetylase activity was obtained in the absence of test compounds (with 0.1% DMSO) after background subtraction. Percentage of inhibition was calculated as a fraction of the positive control.
inhibition at 0.1 µM (0.1 μM test compound),inhibition at 0.3 µM (0.3 μM test compound),inhibition at 1 µM (1 μM test compound),SMILES,HDAC6 % inh @ 0.1 μM (0.1 μM test compound),HDAC6 % inh @ 0.3 μM (0.3 μM test compound),HDAC6 % inh @ 1 μM (1 μM test compound)
75%,92%,96%,"CN(CC1CC1)C(=O)c1cc2cc(-c3cc(-c4noc(C(F)(F)F)n4)ccn3)ncc2n1C [Example 2, N-(Cyclopropylmethyl)-N,1-dimethyl-5-(4-(5-(trifluoromethyl)-1,2,4-oxadiazol-3-yl)pyridin-2-yl)-1H-pyrrolo[2,3-c]pyridine-2-carboxamide hydrochloride]",–,–,–
–,–,–,"CC1(C)C2CCC1(CS(=O)(=O)O)C(=O)C2.Cn1c(C(=O)N2CC[C@H](O)C2)cc2cc(-c3cc(-c4noc(C(F)(F)F)n4)ccn3)ncc21 [Example 6, (S)-(3-Hydroxypyrrolidin-1-yl)(1-methyl-5-(4-(5-(trifluoromethyl)-1,2,4-oxadiazol-3-yl)pyridin-2-yl)-1H-pyrrolo[2,3-c]pyridin-2-yl)methanone (+) Camphorsulfonate Salt]",61%,81%,91%
78%,92%,97%,"Cn1c(C(=O)N2CCC(O)C2)cc2cc(-c3cc(-c4noc(C(F)(F)F)n4)ccn3)ncc21 (stereo not drawn) [Example 2e, (3-Hydroxypyrrolidin-1-yl)(1-methyl-5-(4-(5-(trifluoromethyl)-1,2,4-oxadiazol-3-yl)pyridin-2-yl)-1H-pyrrolo[2,3-c]pyridin-2-yl)methanone hydrochloride]",–,–,–
